Experimental data from ChEMBL document CHEMBL3885881, “DrugMatrix”.

Species: Rattus norvegicus
Experiment: DrugMatrix - Regimen: Daily Repeat
Assay type: toxicity, organism-based, Sprague-Dawley
Set-up: regimen Daily Repeat, gender Male, age 6-8 weeks
Settings: in vivo, po, route oral GAVAGE, vehicle .5 % CMC; for ABSOLUTE BASOPHIL / ABSOLUTE EOSINOPHIL / ABSOLUTE LYMPHOCYTE / ABSOLUTE MONOCYTE / ABSOLUTE SEGMENTED NEUTROPHIL / BASOPHIL / EOSINOPHIL / ERYTHROCYTE COUNT / HEMATOCRIT / HEMOGLOBIN / LEUKOCYTE COUNT / LYMPHOCYTE / MEAN CORPUSCULAR HEMOGLOBIN / MEAN CORPUSCULAR HEMOGLOBIN CONCENTRATION / MEAN CORPUSCULAR VOLUME / MONOCYTE / NEUTROPHIL / NUCLEATED RED BLOOD CELLS / PLATELET COUNT: tissue Blood; for ALANINE AMINOTRANSFERASE / ALBUMIN / ALKALINE PHOSPHATASE / ASPARTATE AMINOTRANSFERASE / BLOOD UREA NITROGEN / CARBON DIOXIDE / CHLORIDE / CHOLESTEROL / CREATINE PHOSPHOKINASE / CREATININE / GLUCOSE / LACTATE DEHYDROGENASE / LIPASE / PHOSPHORUS / POTASSIUM / SODIUM / TOTAL BILIRUBIN / TOTAL PROTEIN / URIC ACID: tissue Plasma
[1] = 100 mg/kg, 120 h, dose level Low, time 5 day
[2] = 2500 mg/kg, 72 h, dose level High, time 3 day
[3] = 2500 mg/kg, 120 h, dose level High, time 5 day

NC(=O)CN1CCCC1=O
ABSOLUTE BASOPHIL [1]: 0 CELLS/uL
ABSOLUTE EOSINOPHIL [1]: 42 CELLS/uL
ABSOLUTE LYMPHOCYTE [1]: 9826.67 CELLS/uL
ABSOLUTE MONOCYTE [1]: 141.33 CELLS/uL
ABSOLUTE SEGMENTED NEUTROPHIL [1]: 823.33 CELLS/uL
BASOPHIL [1]: 0%
EOSINOPHIL [1]: 0.33%
ERYTHROCYTE COUNT [1]: 5.31 x10E6/uL
HEMATOCRIT [1]: 34.1%
HEMOGLOBIN [1]: 13.87 G/DL
LEUKOCYTE COUNT [1]: 10.83 x10E3/uL
LYMPHOCYTE [1]: 90.67%
MEAN CORPUSCULAR HEMOGLOBIN [1]: 26.1 pg
MEAN CORPUSCULAR HEMOGLOBIN CONCENTRATION [1]: 40.7 G/DL
MEAN CORPUSCULAR VOLUME [1]: 64.2 fL
MONOCYTE [1]: 1.33%
NEUTROPHIL [1]: 7.67%
NUCLEATED RED BLOOD CELLS [1]: 0 /100WBC
PLATELET COUNT [1]: 1439.67 x10E3/uL
ALANINE AMINOTRANSFERASE [1]: 57.33 u/L
ALBUMIN [1]: 4.37 G/DL
ALKALINE PHOSPHATASE [1]: 345.67 u/L
ASPARTATE AMINOTRANSFERASE [1]: 81.33 u/L
BLOOD UREA NITROGEN [1]: 14 mg/dL
CARBON DIOXIDE [1]: 31 mmol/L
CHLORIDE [1]: 101.33 MEQ/L
CHOLESTEROL [1]: 79 mg/dL
CREATINE PHOSPHOKINASE [1]: 221.33 u/L
CREATININE [1]: 0.2 mg/dL
GLUCOSE [1]: 137.33 mg/dL
LACTATE DEHYDROGENASE [1]: 190.33 u/L
LIPASE [1]: 10 u/L
PHOSPHORUS [1]: 12 mg/dL
POTASSIUM [1]: 6.54 MEQ/L
SODIUM [1]: 144.03 MEQ/L
TOTAL BILIRUBIN [1]: 0.23 mg/dL
TOTAL PROTEIN [1]: 6.17 G/DL
URIC ACID [1]: 1.2 mg/dL
ABSOLUTE BASOPHIL [2]: 0 CELLS/uL
ABSOLUTE EOSINOPHIL [2]: 0 CELLS/uL
ABSOLUTE LYMPHOCYTE [2]: 13503 CELLS/uL
ABSOLUTE MONOCYTE [2]: 41.67 CELLS/uL
ABSOLUTE SEGMENTED NEUTROPHIL [2]: 1822 CELLS/uL
BASOPHIL [2]: 0%
EOSINOPHIL [2]: 0%
ERYTHROCYTE COUNT [2]: 5.25 x10E6/uL
HEMATOCRIT [2]: 34.27%
HEMOGLOBIN [2]: 13.27 G/DL
LEUKOCYTE COUNT [2]: 15.37 x10E3/uL
LYMPHOCYTE [2]: 88.33%
MEAN CORPUSCULAR HEMOGLOBIN [2]: 25.33 pg
MEAN CORPUSCULAR HEMOGLOBIN CONCENTRATION [2]: 38.77 G/DL
MEAN CORPUSCULAR VOLUME [2]: 65.3 fL
MONOCYTE [2]: 0.33%
NEUTROPHIL [2]: 11.33%
NUCLEATED RED BLOOD CELLS [2]: 0 /100WBC
PLATELET COUNT [2]: 1334.33 x10E3/uL
ALANINE AMINOTRANSFERASE [2]: 49 u/L
ALBUMIN [2]: 3.97 G/DL
ALKALINE PHOSPHATASE [2]: 347.33 u/L
ASPARTATE AMINOTRANSFERASE [2]: 74 u/L
BLOOD UREA NITROGEN [2]: 20.67 mg/dL
CARBON DIOXIDE [2]: 31 mmol/L
CHLORIDE [2]: 102.67 MEQ/L
CHOLESTEROL [2]: 67.67 mg/dL
CREATINE PHOSPHOKINASE [2]: 351.33 u/L
CREATININE [2]: 0.18 mg/dL
GLUCOSE [2]: 147.33 mg/dL
LACTATE DEHYDROGENASE [2]: 239 u/L
LIPASE [2]: 9.67 u/L
PHOSPHORUS [2]: 12.57 mg/dL
POTASSIUM [2]: 6.21 MEQ/L
SODIUM [2]: 146 MEQ/L
TOTAL BILIRUBIN [2]: 0.2 mg/dL
TOTAL PROTEIN [2]: 5.7 G/DL
URIC ACID [2]: 1.4 mg/dL
ABSOLUTE BASOPHIL [3]: 0 CELLS/uL
ABSOLUTE EOSINOPHIL [3]: 37.33 CELLS/uL
ABSOLUTE LYMPHOCYTE [3]: 8603 CELLS/uL
ABSOLUTE MONOCYTE [3]: 37.33 CELLS/uL
ABSOLUTE SEGMENTED NEUTROPHIL [3]: 1055.67 CELLS/uL
BASOPHIL [3]: 0%
EOSINOPHIL [3]: 0.33%
ERYTHROCYTE COUNT [3]: 5.53 x10E6/uL
HEMATOCRIT [3]: 34.87%
HEMOGLOBIN [3]: 14.13 G/DL
LEUKOCYTE COUNT [3]: 9.73 x10E3/uL
LYMPHOCYTE [3]: 88.67%
MEAN CORPUSCULAR HEMOGLOBIN [3]: 25.6 pg
MEAN CORPUSCULAR HEMOGLOBIN CONCENTRATION [3]: 40.53 G/DL
MEAN CORPUSCULAR VOLUME [3]: 63.17 fL
MONOCYTE [3]: 0.33%
NEUTROPHIL [3]: 10.67%
NUCLEATED RED BLOOD CELLS [3]: 0 /100WBC
PLATELET COUNT [3]: 1291.33 x10E3/uL
ALANINE AMINOTRANSFERASE [3]: 61.33 u/L
ALBUMIN [3]: 4.27 G/DL
ALKALINE PHOSPHATASE [3]: 359.33 u/L
ASPARTATE AMINOTRANSFERASE [3]: 86.33 u/L
BLOOD UREA NITROGEN [3]: 18.33 mg/dL
CARBON DIOXIDE [3]: 28.67 mmol/L
CHLORIDE [3]: 101.67 MEQ/L
CHOLESTEROL [3]: 64 mg/dL
CREATINE PHOSPHOKINASE [3]: 310 u/L
CREATININE [3]: 0.16 mg/dL
GLUCOSE [3]: 160.33 mg/dL
LACTATE DEHYDROGENASE [3]: 149.33 u/L
LIPASE [3]: 7.33 u/L
PHOSPHORUS [3]: 12.07 mg/dL
POTASSIUM [3]: 5.7 MEQ/L
SODIUM [3]: 146.23 MEQ/L
TOTAL BILIRUBIN [3]: 0.17 mg/dL
TOTAL PROTEIN [3]: 6.17 G/DL
URIC ACID [3]: 1.67 mg/dL
